According to ChEMBL document CHEMBL5726915, “Substituted pyrimidines containing acidic groups as TLR7 modulators” (2019):

Target: T1, Toll-like receptor 7 (Homo sapiens, UniProt Q9NYK1)
T1 sequence (Q9NYK1 whole entry): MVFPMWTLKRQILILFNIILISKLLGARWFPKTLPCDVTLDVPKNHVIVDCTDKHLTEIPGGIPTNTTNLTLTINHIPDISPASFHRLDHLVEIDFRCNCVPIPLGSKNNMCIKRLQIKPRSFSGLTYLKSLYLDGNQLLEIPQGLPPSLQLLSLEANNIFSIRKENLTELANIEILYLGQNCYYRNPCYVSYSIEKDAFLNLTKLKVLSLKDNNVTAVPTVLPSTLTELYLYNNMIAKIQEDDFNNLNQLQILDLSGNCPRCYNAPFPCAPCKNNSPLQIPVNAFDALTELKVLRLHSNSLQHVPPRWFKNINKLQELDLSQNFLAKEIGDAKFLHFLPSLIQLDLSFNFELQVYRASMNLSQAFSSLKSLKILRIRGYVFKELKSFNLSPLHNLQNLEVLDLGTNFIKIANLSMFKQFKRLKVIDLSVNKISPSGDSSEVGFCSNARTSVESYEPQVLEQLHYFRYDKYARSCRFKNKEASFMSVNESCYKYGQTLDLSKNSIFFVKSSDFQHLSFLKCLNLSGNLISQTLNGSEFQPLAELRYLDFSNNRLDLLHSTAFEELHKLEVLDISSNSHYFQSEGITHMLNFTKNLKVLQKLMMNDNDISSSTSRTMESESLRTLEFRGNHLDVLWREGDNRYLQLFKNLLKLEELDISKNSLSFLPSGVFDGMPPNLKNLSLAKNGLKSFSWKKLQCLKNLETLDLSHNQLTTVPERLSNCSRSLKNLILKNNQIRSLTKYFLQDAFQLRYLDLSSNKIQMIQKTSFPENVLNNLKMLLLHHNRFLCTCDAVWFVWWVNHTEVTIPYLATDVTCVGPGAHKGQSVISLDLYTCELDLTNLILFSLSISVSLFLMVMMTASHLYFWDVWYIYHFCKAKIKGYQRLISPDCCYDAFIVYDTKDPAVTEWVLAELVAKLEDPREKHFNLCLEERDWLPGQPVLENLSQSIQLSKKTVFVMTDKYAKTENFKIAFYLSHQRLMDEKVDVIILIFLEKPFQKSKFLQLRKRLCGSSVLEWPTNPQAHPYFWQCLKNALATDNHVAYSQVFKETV
Assay: HEK TLR7 Assay: HEK-Blue TLR7 cells were purchased from Invivogen (San Diego, Calif.). The following description was taken from the product information sheet."HEK-Blue hTLR7 cells are designed for studying the stimulation of human TLR7 (hTLR7) by monitoring the activation of NF-kB. HEK-Blue hTLR7 cells were obtained by co-transfection of the hTLR7 gene and an optimized secreted embryonic alkaline phosphatase (SEAP) reporter gene into HEK293 cells. The SEAP reporter gene is placed under the control of the IFN-b minimal promoter fused to five NF-kB and AP-1-binding sites. Stimulation with a TLR7 ligand activates NF-kB and AP-1 which induce the production of SEAP, which is detected by the HEK-Blue™ Detection cell culture medium."A typical assay protocol involved the following steps:1. Cells were cultured according to the product information sheet.2. 10 mM compound stock in DMSO were first diluted to 3 mM and then 3-fold serially diluted using DMSO to afford a 10-pt dilution.3. 3 μl of the diluted DMSO were added to 57 μl HEK-Blue Detection media for a further 20-fold dilution.4. 10 μl of the diluted compound in assay media were added into 40 μl cell culture (in HEK-Blue™ Detection media) in 384-well plate. Final cell concentration=8,000 cells per well.5. The plates were incubated at 37° C. in 5% CO2 for 16 h. SEAP was determined using a spectrophotometer at 620-655 nm.

| Structure (SMILES) | EC50 [nM] |
| --- | --- |
| CCCC[C@@H](CCSC)Nc1nc(N)nc(C)c1Cc1cc(Cc2nn[nH]n2)ccc1OC | < 100 |
| CCCC[C@@H](CCSC)Nc1nc(N)nc(C)c1Cc1cc(C(=O)NCCCP(=O)(O)O)ccc1OC | < 100 |
| CCCC[C@@H](CCS(C)(=O)=O)Nc1nc(N)nc(C)c1Cc1cc(Cc2nn[nH]n2)ccc1OC | < 100 |
